Results reported in patent US12077503B2, “Substituted cyclic amides and their use as herbicides” (FMC CORPORATION, priority 2015, dated 2024).

Legend:
Assay type in all cases: in vivo
Kochia (Kochia scoparia) [1] = experiment: Test A preemergence; conditions: Bassia scoparia, pre-emergence, 240 h; for pest or weed control at 125 g/ha: 125 g ai/ha, preemergence, 0 to 100 scale where 0 is no effect and 100 is complete control, read-out: Kochia plant response rating; for pest or weed control at 500 g/ha: 500 g ai/ha, Preemergence, visual injury vs untreated controls after approximately 10 d, read-out: Kochia plant response rating (0 to 100 scale where 0 is no effect and 100 is complete control)
Procedure, shortened: (§1)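 Visual injury, scored on a 0–100 scale relative to untreated controls, was recorded about 10 d after application. Treatments were a preemergence soil spray over planted seeds or a postemergence spray on plants at the one- to two-leaf stage, 2 to 10 cm tall, all in loam soil–sand blend in the greenhouse.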

[2] = system: barnyardgrass (Echinochloa crus-galli); experiment: Test A preemergence; conditions: Echinochloa crus-galli, pre-emergence, 240 h; for pest or weed control at 125 g/ha: 125 g ai/ha, preemergence, 0 to 100 scale where 0 is no effect and 100 is complete control, read-out: Barnyardgrass plant response rating; for pest or weed control at 500 g/ha: 500 g ai/ha, Preemergence, visual injury vs untreated controls after approximately 10 d, read-out: Barnyardgrass plant response rating (0 to 100 scale where 0 is no effect and 100 is complete control)
Procedure, shortened: as §1

[3] = system: giant foxtail (Setaria faberii); experiment: Test A preemergence; conditions: Setaria faberi, pre-emergence, 240 h; for pest or weed control at 125 g/ha: 125 g ai/ha, preemergence, 0 to 100 scale where 0 is no effect and 100 is complete control, read-out: Foxtail, Giant plant response rating; for pest or weed control at 500 g/ha: 500 g ai/ha, Preemergence, visual injury vs untreated controls after approximately 10 d, read-out: Foxtail, Giant plant response rating (0 to 100 scale where 0 is no effect and 100 is complete control)
Procedure, shortened: as §1

[4] = system: pigweed (Amaranthus retroflexus); experiment: Test A preemergence; conditions: Amaranthus retroflexus, pre-emergence, 240 h; for pest or weed control at 125 g/ha: 125 g ai/ha, preemergence, 0 to 100 scale where 0 is no effect and 100 is complete control, read-out: Pigweed plant response rating; for pest or weed control at 500 g/ha: 500 g ai/ha, Preemergence, visual injury vs untreated controls after approximately 10 d, read-out: Pigweed plant response rating (0 to 100 scale where 0 is no effect and 100 is complete control)
[5] = system: ragweed (common ragweed, Ambrosia elatior); experiment: Test A preemergence; conditions: Ambrosia artemisiifolia, pre-emergence, 240 h; for pest or weed control at 125 g/ha: 125 g ai/ha, preemergence, 0 to 100 scale where 0 is no effect and 100 is complete control, read-out: Ragweed plant response rating; for pest or weed control at 500 g/ha: 500 g ai/ha, Preemergence, visual injury vs untreated controls after approximately 10 d, read-out: Ragweed plant response rating (0 to 100 scale where 0 is no effect and 100 is complete control)
Procedure, shortened: as §1

[6] = system: ryegrass, Italian (Italian ryegrass, Lolium multiflorum); experiment: Test A preemergence; conditions: Lolium multiflorum, pre-emergence, 240 h; for pest or weed control at 125 g/ha: 125 g ai/ha, preemergence, 0 to 100 scale where 0 is no effect and 100 is complete control, read-out: Ryegrass, Italian plant response rating; for pest or weed control at 500 g/ha: 500 g ai/ha, Preemergence, visual injury vs untreated controls after approximately 10 d, read-out: Ryegrass, Italian plant response rating (0 to 100 scale where 0 is no effect and 100 is complete control)
Procedure, shortened: as §1

Kochia (Kochia scoparia) [7] = experiment: Test A postemergence; conditions: Bassia scoparia, post-emergence, 240 h, 125 g ai/ha, postemergence, visual injury rating after approximately 10 d; read-out: Kochia plant response rating (0 to 100 scale, 0 no effect, 100 complete control)
Procedure, shortened: as §1

[8] = system: barnyardgrass (Echinochloa crus-galli); experiment: Test A postemergence; conditions: Echinochloa crus-galli, post-emergence, 240 h, 125 g ai/ha, postemergence, visual injury rating after approximately 10 d; read-out: Barnyardgrass plant response rating (0 to 100 scale, 0 no effect, 100 complete control)
Procedure, shortened: as §1

[9] = system: giant foxtail (Setaria faberii); experiment: Test A postemergence; conditions: Setaria faberi, post-emergence, 240 h, 125 g ai/ha, postemergence, visual injury rating after approximately 10 d; read-out: Foxtail, Giant plant response rating (0 to 100 scale, 0 no effect, 100 complete control)
Procedure, shortened: as §1

[10] = system: ragweed (common ragweed, Ambrosia elatior); experiment: Test A postemergence; conditions: Ambrosia artemisiifolia, post-emergence, 240 h, 125 g ai/ha, postemergence, visual injury rating after approximately 10 d; read-out: Ragweed plant response rating (0 to 100 scale, 0 no effect, 100 complete control)
Procedure, shortened: as §1

[11] = system: barnyardgrass (Echinochloa crus-galli); experiment: Test B flooded paddy test; conditions: Echinochloa crus-galli, Flood, 250 g ai/ha; scale of 0 to 100 where 0 is no effect and 100 is complete control; read-out: Barnyardgrass plant response rating
Procedure, shortened: (§2)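 Compound goes directly into floodwater once pots are flooded 3 cm above soil, targeting plants at two leaves; the water depth is then held for the test duration. Plants sit 13–15 d in a greenhouse and are rated visually, 100 denoting complete control.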

[12] = system: ducksalad (Heteranthera limosa); experiment: Test B flooded paddy test; conditions: Heteranthera limosa, Flood, 250 g ai/ha; scale of 0 to 100 where 0 is no effect and 100 is complete control; read-out: Ducksalad plant response rating
Procedure, shortened: as §2

rice (Oryra sativa) = experiment: Test B flooded paddy test; conditions: Oryza sativa, Flood, 250 g ai/ha; scale of 0 to 100 where 0 is no effect and 100 is complete control; read-out: Rice plant response rating
Procedure, shortened: as §2

[13] = system: sedge, umbrella (small-flower umbrella sedge, Cyperus difformis); experiment: Test B flooded paddy test; conditions: Cyperus difformis, Flood, 250 g ai/ha; scale of 0 to 100 where 0 is no effect and 100 is complete control; read-out: Sedge, Umbrella plant response rating
Procedure, shortened: as §2

Row | Structure (SMILES) | pest or weed control at 125 g/ha (Kochia (Kochia scoparia) [1]) | pest or weed control at 500 g/ha (Kochia (Kochia scoparia) [1]) | pest or weed control at 125 g/ha [2] | pest or weed control at 500 g/ha [2] | pest or weed control at 125 g/ha [3] | pest or weed control at 500 g/ha [3] | pest or weed control at 125 g/ha [4] | pest or weed control at 500 g/ha [4] | pest or weed control at 125 g/ha [5] | pest or weed control at 500 g/ha [5] | pest or weed control at 125 g/ha [6] | pest or weed control at 500 g/ha [6] | pest or weed control at 125 g/ha (Kochia (Kochia scoparia) [7]) | pest or weed control at 125 g/ha [8] | pest or weed control at 125 g/ha [9] | pest or weed control at 125 g/ha [10] | pest or weed control at 250 g/ha [11] | pest or weed control at 250 g/ha [12] | pest or weed control at 250 g/ha (rice (Oryra sativa)) | pest or weed control at 250 g/ha [13]
1 | COc1c(F)ccc([C@H]2CN(C)C(=O)[C@@H]2C(=O)Nc2ccc(F)c(F)c2F)c1Cl [Compound 895] | 90% | 90% | 90% | 100% | 90% | 90% | 50% | 50% | 0% | 0% | 90% | 70% | 70% | 90% | 90% | 0% | 75% | 85% | 0% | 0%
2 | COc1c(F)ccc([C@H]2CN(C)C(=O)[C@@H]2C(=O)Nc2ccccc2C(F)(F)F)c1Cl [Compound 896] | 30% | 50% | 90% | 90% | 90% | 100% | 20% | 40% | 0% | 0% | 40% | 70% | 20% | 90% | 90% | 0% | 45% | 25% | 20% | 0%
3 | COc1c(F)ccc([C@H]2CN(C)C(=O)[C@@H]2C(=O)Nc2ccccc2S(C)(=O)=O)c1Cl [Compound 897] | 60% | 90% | 80% | 90% | 90% | 100% | 30% | 60% | 20% | 60% | 20% | 50% | 30% | 90% | 80% | 20% | 45% | 45% | 0% | 0%
4 | CCOc1ccc([C@H]2CN(C)C(=O)[C@@H]2C(=O)Nc2cccc(F)c2F)cc1 [Compound 904] | 90% | 90% | 90% | 90% | 90% | 90% | 0% | 50% | 0% | 0% | 0% | 0% | 30% | 80% | 80% | 0% | 0% | 0% | 0% | 0%
5 | Cc1cc(C)cc([C@H]2CN(C)C(=O)[C@@H]2C(=O)Nc2cccc(F)c2F)c1 [Compound 911] | 90% | 100% | 90% | 100% | 90% | 100% | 20% | 50% | 0% | 60% | 70% | 90% | 50% | 90% | 90% | 0% | 80% | 75% | 0% | 0%
6 | CCc1cc([C@H]2CNC(=O)[C@@H]2C(=O)Nc2ccccc2F)cs1 [Compound 913] | 0% | 40% | 80% | 90% | 50% | 90% | 0% | 0% | 0% | 60% | 0% | 40% | 0% | 90% | 30% | 30% | 0% | 90% | 0% | 0%
